pIC50, pKi: −log10 of the molar value.
What was measured:
Plasmepsin II = Plasmepsin II (Plasmodium falciparum, UniProt P46925); assay: Inhibition of Plasmodium falciparum PLM2 using Lys-Glu-Phe-Val-Phe-NPhe-Ala-Leu-Lys as substrate by spectrophotometry; conditions: for pKi: read-out: Ki
[1] = Inhibition of Plasmodium falciparum PLM4 using Lys-Glu-Phe-Val-Phe-NPhe-Ala-Leu-Lys as substrate by spectrophotometry
[2] = Inhibition of Plasmodium malariae PLM4 using Lys-Glu-Phe-Val-Phe-NPhe-Ala-Leu-Lys as substrate by spectrophotometry
[3] = Inhibition of Plasmodium ovale PLM4 using Lys-Glu-Phe-Val-Phe-NPhe-Ala-Leu-Lys as substrate by spectrophotometry
[4] = Inhibition of Plasmodium vivax PLM4 using Lys-Glu-Phe-Val-Phe-NPhe-Ala-Leu-Lys as substrate by spectrophotometry
Plasmodium falciparum [5] = assay: Antiplasmodial activity against chloroquine-sensitive Plasmodium falciparum D10; type: functional, organism-based
Plasmodium falciparum [6] = assay: Antiplasmodial activity against chloroquine-resistant Plasmodium falciparum W2; type: functional, organism-based
[7] = Cytotoxicity against human HDF at 100 uM; conditions: HDF cells, read-out: INH
Plasmodium falciparum [8] = assay: microbe, parasite or virus in culture; conditions: D10, 72 h
Description: Antiplasmodial activity against chloroquine-sensitive Plasmodium falciparum D10 after 72 hrs by parasite lactate dehydrogenase assay

Plasmodium falciparum [9] = assay: microbe, parasite or virus in culture; conditions: W2, 72 h
Description: Antiplasmodial activity against chloroquine-resistant Plasmodium falciparum W2 after 72 hrs by parasite lactate dehydrogenase assay

Cathepsin D = Cathepsin D (Homo sapiens, UniProt P07339); assay: Inhibition of human cathepsin D
Sequence of Cathepsin D (P07339 65-162 limits assumed): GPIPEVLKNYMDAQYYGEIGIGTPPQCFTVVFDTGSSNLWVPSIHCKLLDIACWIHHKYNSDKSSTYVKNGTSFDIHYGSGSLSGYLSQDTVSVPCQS
Sequence of Cathepsin D (P07339 169-412 limits assumed): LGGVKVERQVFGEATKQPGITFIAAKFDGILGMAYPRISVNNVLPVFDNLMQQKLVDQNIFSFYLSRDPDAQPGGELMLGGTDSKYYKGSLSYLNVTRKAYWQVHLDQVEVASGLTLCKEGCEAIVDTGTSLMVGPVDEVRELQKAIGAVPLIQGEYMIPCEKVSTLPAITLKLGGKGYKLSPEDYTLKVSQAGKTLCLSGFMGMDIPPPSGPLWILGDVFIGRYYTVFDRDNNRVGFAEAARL

Sequence of Plasmepsin II (P46925 whole entry): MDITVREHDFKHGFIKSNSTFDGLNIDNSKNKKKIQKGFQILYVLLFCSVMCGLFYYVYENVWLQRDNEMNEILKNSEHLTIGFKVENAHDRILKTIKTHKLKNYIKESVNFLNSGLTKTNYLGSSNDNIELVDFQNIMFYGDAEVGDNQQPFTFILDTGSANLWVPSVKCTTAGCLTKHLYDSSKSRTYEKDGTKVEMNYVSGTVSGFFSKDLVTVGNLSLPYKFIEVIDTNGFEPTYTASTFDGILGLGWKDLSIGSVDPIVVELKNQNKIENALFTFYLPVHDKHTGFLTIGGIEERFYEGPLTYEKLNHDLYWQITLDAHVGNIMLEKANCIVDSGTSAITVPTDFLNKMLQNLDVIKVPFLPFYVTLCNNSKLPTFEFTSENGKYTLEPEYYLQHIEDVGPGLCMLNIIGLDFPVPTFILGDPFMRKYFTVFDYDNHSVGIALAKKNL

Row | Compound | pKi (Plasmepsin II) | pKi [1] | pKi [2] | pKi [3] | pKi [4] | pIC50 (Plasmodium falciparum [5]) | pIC50 (Plasmodium falciparum [6]) | cytotoxicity at 100 µM [7] | pIC50 (Plasmodium falciparum [8]) | pIC50 (Plasmodium falciparum [9]) | pIC50 (Cathepsin D) | Ki (Plasmepsin II)
1 | CCCCNC(=O)C[C@H](O)[C@H](CC(C)C)NC(=O)[C@@H](NC(=O)c1ccc(Oc2ccc(C(=O)N[C@@H](CC(C)C)C(=O)N[C@@H](CCCCN)C(=O)NCCCC(C)Nc3cc(OC)cc4cccnc34)cc2)cc1)[C@@H](C)CC (some centres not stated) | 9.40 | 9.30 | 8.92 | 8.00 | 8.92 | 6.40 | 6.40 | 50% | 6.40 | 6.15 |  | 
2 | CCCCNC(=O)C[C@H](O)[C@H](CC(C)C)NC(=O)[C@@H](NC(=O)c1ccc(Oc2ccc(C(=O)NCCCNc3ccnc4cc(Cl)ccc34)cc2)cc1)[C@@H](C)CC | 8.64 | 8.27 | 9.03 | 7.96 | 9.15 |  |  |  | 6.75 | 7.11 | 6.66 | 
3 | CCCCNC(=O)C[C@H](O)[C@H](CC(C)C)NC(=O)[C@@H](NC(=O)c1ccc(Oc2ccc(C(=O)N[C@@H](C)C(=O)NCCCNc3ccnc4cc(Cl)ccc34)cc2)cc1)[C@@H](C)CC | 8.42 | 8.06 | 8.62 | 8.07 | 9.32 |  |  |  | 6.94 | 7.19 | 6.27 | 
4 | CCCCNC(=O)C[C@H](O)[C@H](CC(C)C)NC(=O)[C@@H](NC(=O)c1ccc(Oc2ccc(C(=O)N[C@@H](CC(C)C)C(=O)N[C@@H](C)C(=O)NCCCNc3ccnc4ccccc34)cc2)cc1)[C@@H](C)CC | 8.59 | 8.17 | 9.06 | 8.09 | 9.37 |  |  |  | 6.79 | 6.32 | 6.52 | 
5 | CCCCNC(=O)C[C@H](O)[C@H](CC(C)C)NC(=O)[C@@H](NC(=O)c1ccc(Oc2ccc(C(=O)NCc3ccccc3)cc2)cc1)[C@@H](C)CC | 8.89 | 7.70 | 8.24 | 8.96 | 7.72 |  |  |  | < 5.15 | < 5.15 |  | 
6 | CCCCNC(=O)C[C@H](O)[C@H](CC(C)C)NC(=O)[C@@H](NC(=O)c1ccc(Oc2ccc(C(=O)OCc3ccccc3)cc2)cc1)[C@@H](C)CC | 8.72 | 8.59 | 8.68 | 9.47 | 8.33 |  |  |  | 5.41 | 5.33 |  | 
7 | CC(C)C[C@H](NC(=O)OCc1ccccc1)C(=O)N[C@@H](C)C(=O)NCCCNc1ccnc2cc(Cl)ccc12 |  |  |  |  |  |  |  |  | 6.71 | 5.78 |  | Not Active
8 | CCN(CC)CCCC(C)Nc1ccnc2cc(Cl)ccc12 (configuration not stated) [CHLOROQUINE] |  |  |  |  |  |  |  |  |  |  |  | Not Active
